Test results taken from patent US7902373B2 (Pfizer Inc, priority 2006, dated 2011).
pIC50: −log10 of the molar value.

These compounds were tested against human recombinant H-PGDS (Homo sapiens, UniProt O60760) (assay: Fluorescence intensity h-PGDS TBA enzyme assay). Settings: Examples up to 622 (and 3a, 3b).
Format: biochemical

human recombinant H-PGDS, sequence (O60760 whole entry): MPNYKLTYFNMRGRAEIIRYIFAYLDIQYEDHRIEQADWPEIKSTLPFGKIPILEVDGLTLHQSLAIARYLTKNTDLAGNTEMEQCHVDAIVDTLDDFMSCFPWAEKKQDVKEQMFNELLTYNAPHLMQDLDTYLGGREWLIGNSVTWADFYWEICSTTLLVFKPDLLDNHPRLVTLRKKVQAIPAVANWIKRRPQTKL

| Structure (SMILES) | pIC50 |
| --- | --- |
| CC(C)(C)OC(=O)NC1(CN2CCC(NC(=O)c3ccc(-c4cccc(F)c4)nc3)CC2)CC1 [Example 203, tert-Butyl(1-{[4-({[6-(3-fluorophenyl)pyridin-3-yl]carbonyl}amino)piperidin-1-yl]methyl}cyclopropyl)carbamate] | 8.66 |
| Cn1c(CN2CCC(NC(=O)c3ccc(-c4cccc(F)c4)nc3)CC2)cc2ccccc21 [Example 207, 6-(3-Fluorophenyl)-N-{1-[(1-methyl-1H-indol-2-yl)methyl]piperidin-4-yl}nicotinamide] | 8.80 |
| CCc1ncc(CN2CCC(NC(=O)c3ccc(-c4cccc(F)c4)nc3)CC2)[nH]1 [Example 208, N-{1-[(2-Ethyl-1H-imidazol-5-yl)methyl]piperidin-4-yl}-6-(3-fluorophenyl)nicotinamide] | 8.22 |
| Cc1nn(C(C)(C)C)c(C)c1CN1CCC(NC(=O)c2ccc(-c3cccc(F)c3)nc2)CC1 [Example 209, N-{1-[(1-tert-Butyl-3,5-dimethyl-1H-pyrazol-4-yl)methyl]piperidin-4-yl}-6-(3-fluorophenyl)nicotinamide] | 8.86 |
| O=C(NC1CCN(Cc2ccc(-n3cccn3)cc2)CC1)c1ccc(-c2cccc(F)c2)nc1 [Example 210, 6-(3-Fluorophenyl)-N-{1-[4-(1H-pyrazol-1-yl)benzyl]piperidin-4-yl}nicotinamide] | 9.34 |
| COc1ccc(CC2CC(NC(=O)c3ccc(-c4cccc(F)c4)nc3)CCN2)cc1OC (stereo not shown) [Example 212, N-[2-(3,4-Dimethoxybenzyl)piperidin-4-yl]-6-(3-fluorophenyl)nicotinamide] | 8.85 |
| CN(C)CCCOc1ccc(CN2CCC(NC(=O)c3ccc(-c4cccc(F)c4)nc3)CC2)cc1 [Example 214, N-(1-{4-[3-(Dimethylamino)propoxy]benzyl}piperidin-4-yl)-6-(3-fluorophenyl)nicotinamide] | 8.26 |
| Cn1ccnc1CN1CCC(NC(=O)c2ccc(-c3cccc(F)c3)nc2)CC1 [Example 215, 6-(3-Fluorophenyl)-N-{1-[(1-methyl-1H-imidazol-2-yl)methyl]piperidin-4-yl}nicotinamide] | 9.42 |
| O=C(NC1CCN(Cc2nccs2)CC1)c1ccc(-c2cccc(F)c2)nc1 [Example 216, 6-(3-Fluorophenyl)-N-[1-(1,3-thiazol-2-ylmethyl)piperidin-4-yl]nicotinamide] | 9.44 |
| O=C(NC1CCN(Cc2cc(F)c(F)cc2F)CC1)c1ccc(-c2cccc(F)c2)nc1 [Example 218, 6-(3-Fluorophenyl)-N-[1-(245-trifluorobenzyl)piperidin-4-yl]nicotinamide] | 9.35 |

More lines, now with the values ahead:

| pIC50 | Structure (SMILES) |
| --- | --- |
| 10.17 | COc1ccc(CN2CCC(NC(=O)c3ccc(-c4cccc(F)c4)nc3)CC2)cc1Cl [Example 204, N-[1-(3-Chloro-4-methoxybenzyl)piperidin-4-yl]-6-(3-fluorophenyl)nicotinamide] |
| 9.62 | COc1ccc(OC)c(CN2CCC(NC(=O)c3ccc(-c4cccc(F)c4)nc3)CC2)c1 [Example 205, N-[1-(2,5-Dimethoxybenzyl)piperidin-4-yl]-6-(3-fluorophenyl)nicotinamide] |
| 8.74 | CC(C)Oc1cccc(CN2CCC(NC(=O)c3ccc(-c4cccc(F)c4)nc3)CC2)c1 [Example 206, 6-(3-Fluorophenyl)-N-[1-(3-isopropoxybenzyl)piperidin-4-yl]nicotinamide] |
| 9.34 | COc1cccc(F)c1CN1CCC(NC(=O)c2ccc(-c3cccc(F)c3)nc2)CC1 [Example 211, N-[1-(2-Fluoro-6-methoxybenzyl)piperidin-4-yl]-6-(3-fluorophenyl)nicotinamide] |
| 9.33 | N#Cc1ccccc1CN1CCC(NC(=O)c2ccc(-c3cccc(F)c3)nc2)CC1 [Example 213, N-[1-(2-Cyanobenzyl)piperidin-4-yl]-6-(3-fluorophenyl)nicotinamide] |
| 8.82 | CC(C)Oc1ccc(CN2CCC(NC(=O)c3ccc(-c4cccc(F)c4)nc3)CC2)cc1 [Example 217, 6-(3-Fluorophenyl)-N-[1-(4-isopropoxybenzyl)piperidin-4-yl]nicotinamide] |
